Experimental data published in patent US8563553B2, “Compounds and compositions as protein kinase inhibitors” (Novartis AG, priority 2009, dated 2013).

Target: b-Raf(V600E) (Homo sapiens (Human), UniProt P15056, V600E)
Experiment: Raf/Mek Amplified Luminescence Proximity Homogeneous Assay (Alpha Screen)
Format: biochemical
Conditions: b-Raf(V600E) approximately 4 pM; biotinylated Mek, kinase dead approximately 10 nM; ATP 10 μM; pre-incubation 60 minutes; reaction 3 hours at room temperature; read-out: mut-B-RAF IC50
Procedure, shortened: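 Raf pre-incubated with compound and kinase-dead biotinylated Mek (~10 nM) for 60 min, room temperature, in 50 mM Tris pH 7.5, 15 mM MgCl2, 0.01% BSA, 1 mM DTT; ATP-started reaction 1 or 3 h, EDTA stop. Phospho-MEK detected by anti-p-MEK1/2 AlphaScreen; IC50 by non-linear regression.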

b-Raf(V600E), sequence (P15056 whole entry V600E): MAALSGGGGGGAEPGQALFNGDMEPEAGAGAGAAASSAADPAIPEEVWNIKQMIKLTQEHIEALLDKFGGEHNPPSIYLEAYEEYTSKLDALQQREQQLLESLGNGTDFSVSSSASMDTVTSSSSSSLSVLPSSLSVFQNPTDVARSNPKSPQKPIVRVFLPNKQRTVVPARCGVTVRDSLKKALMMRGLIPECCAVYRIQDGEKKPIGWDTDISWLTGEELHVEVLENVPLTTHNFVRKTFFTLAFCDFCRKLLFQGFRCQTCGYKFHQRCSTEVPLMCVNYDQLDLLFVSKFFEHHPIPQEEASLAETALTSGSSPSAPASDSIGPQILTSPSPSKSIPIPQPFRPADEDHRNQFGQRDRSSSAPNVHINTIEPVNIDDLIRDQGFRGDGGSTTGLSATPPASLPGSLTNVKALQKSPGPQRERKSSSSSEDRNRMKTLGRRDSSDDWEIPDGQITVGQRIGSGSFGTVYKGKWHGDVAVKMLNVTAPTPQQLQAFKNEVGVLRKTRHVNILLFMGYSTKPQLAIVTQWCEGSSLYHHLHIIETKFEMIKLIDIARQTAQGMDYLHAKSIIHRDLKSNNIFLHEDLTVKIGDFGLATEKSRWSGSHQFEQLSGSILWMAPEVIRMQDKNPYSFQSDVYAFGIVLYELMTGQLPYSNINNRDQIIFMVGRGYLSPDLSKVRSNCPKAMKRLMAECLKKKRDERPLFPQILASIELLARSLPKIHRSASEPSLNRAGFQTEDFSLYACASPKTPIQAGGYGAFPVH

SMILES	IC50 [nM]
COC(=O)N[C@H](C)CNc1nccc(-c2[nH]c(C3CC3)nc2-c2cc(F)cc(NS(C)(=O)=O)c2Cl)n1 [Example 1AV, (R)-Methyl 1-(4-(4-(2-chloro-5-fluoro-3-(methylsulfonamido)phenyl)-2-cyclopropyl-1H-imidazol-5-yl)pyrimidin-2-ylamino)propan-2-ylcarbamate]	11
COC(=O)N[C@@H](C)CNc1nccc(-c2nc(C3CC3)[nH]c2-c2cc(Cl)cc(NS(=O)(=O)c3cccc(F)c3)c2F)n1 [Example 1AX, (S)-Methyl 1-(4-(5-(5-chloro-2-fluoro-3-(3-fluorophenylsulfonamido)phenyl)-2-cyclopropyl-1H-imidazol-4-yl)pyrimidin-2-ylamino)propan-2-ylcarbamate]	0.33
CS(=O)(=O)Nc1cc(F)cc(-c2nc(C3CC3)[nH]c2-c2ccnc(N)n2)c1Cl [Example 1BQ, N-(3-(5-(2-Aminopyrimidin-4-yl)-2-cyclopropyl-1H-imidazol-4-yl)-2-chloro-5-fluorophenyl)methanesulfonamide]	12
COC(=O)N[C@@H](C)CNc1nccc(-c2[nH]c(C(C)(C)C)nc2-c2cccc(NS(C)(=O)=O)c2)n1 [Example 1R, (S)-Methyl 1-(4-(2-tert-butyl-4-(3-(methylsulfonamido)phenyl)-1H-imidazol-5-yl)pyrimidin-2-ylamino)propan-2-ylcarbamate]	34.5
COC(=O)N[C@@H](C)CNc1nccc(-c2[nH]c(C(C)(C)C)nc2-c2cccc(NS(C)(=O)=O)c2F)n1 [Example 2C, (S)-Methyl 1-(4-(2-tert-butyl-4-(2-fluoro-3-(methylsulfonamido)phenyl)-1H-imidazol-5-yl)pyrimidin-2-ylamino)propan-2-ylcarbamate]	0.61
COC(=O)N[C@@H](C)CNc1nccc(-c2[nH]c(C(C)(C)C)nc2-c2cc(Cl)cc(NS(=O)(=O)C(C)C)c2C)n1 [Example 1O, (S)-Methyl 1-(4-(2-tert-butyl-4-(5-chloro-2-methyl-3-(1-methylethylsulfonamido)phenyl)-1H-imidazol-5-yl)pyrimidin-2-ylamino)propan-2-ylcarbamate]	67.2

These reach a lower IC50. Values come first.

IC50 [nM]	SMILES
0.22	CC(C)(C)c1nc(-c2cccc(NS(=O)(=O)c3c(F)cccc3F)c2Cl)c(-c2ccnc(N)n2)[nH]1 [Example 1BK, N-(3-(5-(2-Aminopyrimidin-4-yl)-2-tert-butyl-1H-imidazol-4-yl)-2-chlorophenyl)-2,6-difluorobenzenesulfonamide]
0.26	COC(=O)N[C@@H](C)CNc1nccc(-c2nc(C3CC3)[nH]c2-c2cc(Cl)cc(NS(=O)(=O)CC3CC3)c2F)n1 [Example 1AC, (S)-Methyl 1-(4-(5-(5-chloro-3-(cyclopropylmethylsulfonamido)-2-fluorophenyl)-2-cyclopropyl-1H-imidazol-4-yl)pyrimidin-2-ylamino)propan-2-ylcarbamate]
0.28	COC(=O)N[C@@H](C)CNc1nccc(-c2[nH]c(C(C)(C)C)nc2-c2cc(Cl)cc(NS(C)(=O)=O)c2F)n1 [Example 1AI, (S)-Methyl 1-(4-(2-tert-butyl-4-(5-chloro-2-fluoro-3-(methylsulfonamido)phenyl)-1H-imidazol-5-yl)pyrimidin-2-ylamino)propan-2-ylcarbamate]
0.3	COC(=O)N[C@@H](C)CNc1nccc(-c2[nH]c(C(C)(C)C)nc2-c2cc(Cl)cc(NS(=O)(=O)CC(C)C)c2)n1 [Example 1G, (S)-methyl 1-(4-(2-tert-butyl-4-(3-chloro-5-(2-methylpropylsulfonamido)phenyl)-1H-imidazol-5-yl)pyrimidin-2-ylamino)propan-2-ylcarbamate]
0.13	CCCS(=O)(=O)Nc1cccc(-c2nc(C3CC3)[nH]c2-c2ccnc(NCCC#N)n2)c1F [Example 4G, N-(3-(5-(2-(2-Cyanoethylamino)pyrimidin-4-yl)-2-cyclopropyl-1H-imidazol-4-yl)-2-fluorophenyl)propane-1-sulfonamide]
